The values that follow come from paper PMC6548335 (ACS infectious diseases, 2019).

“Also recorded” adds a separate entry of the source.

Data set [1] is described as follows: Hepatic microsomal stability. The note with it: mouse, liver microsomes, pH 7.4. The format is in vitro ADME. For orientation: Liver microsomes are a subcellular fraction often used to study metabolism.
Data set [2] deals with malate dehydrogenase (MDH). In words: Malate dehydrogenase. The format is biochemical. Conditions: presence and absence of Triton X-100.
Another data set relates to DENV2 NGC. Kind of data set: microbe, parasite or virus in culture. The format is cell-based, dengue virus 2 (BHK-21 cells). Conditions: Dengue virus, DENV2, BHK-21, read-out: IC90 (μM) [DENV2 NGC).
For a further data set, the system named is BHK-21 cells. In words: Cytotoxicity assay. It counts as cell-based, baby hamster. The note with it: for CC5: 50% loss of BHK-21 cell viability; for CC50 relative to antiviral IC90: BHK-21 CC50 vs DENV2 IC90.
Data set [3] has as its target soluble, prefusion DENV2 envelope protein (sE2) (Dengue virus type 2, UniProt P14340). Kind of data set: Biolayer interferometry binding to sE2. Also on record: species or system dengue virus 2. (In BLI a coated tip is dipped into the sample, and binding shifts an interference pattern.)
In data set [4] the test system is DENV2 S221. Kind of data set: Multi-cycle infection, DENV2 S221. The note with it: 5 μM, MOI 0.01, supernatants at 48 and 72 hours post-infection.
Data set [5] concerns E-mediated membrane fusion of DENV2, strain NGC. The note with it: 0, 10, 50 μM compound, pH 5.3, Western blot. (In general: A western blot detects proteins with antibodies after separation by electrophoresis.)
Data set [6] in a line: Pharmacokinetic study in mice. Conditions: female, C57BL/6, mouse, intraperitoneal, 20 mg/kg.
Data set [7] deals with DENV2 S221. Kind of data set: Viral infectivity assay, mouse-adapted DENV2 S221. Conditions: Dengue virus, DENV2, BHK-21, read-out: antiviral IC90, DENV2 S221.
The next data set is described as follows: Plasma-protein binding. It counts as in vitro ADME.

With `N#C/C(=N\Nc1cc(F)cc(C(F)(F)F)c1)C(=O)c1cc2ccccc2o1` [JBJ-03-019-02, (E)-2-(benzofuran-2-yl)-N-(3-fluoro-5-(trifluoromethyl)phenyl)-2-oxoacetohydrazonoyl cyanide], the half-life (usually the time needed for the level to fall by half in the phase considered) at 1 μM in data set [1] is 8.6 min.
On to `N#C/C(=N\Nc1ccc(F)c(C(F)(F)F)c1)C(=O)c1cc2ccccc2o1` [JBJ-03-019-01, (E)-2-(benzofuran-2-yl)-N-(4-fluoro-3-(trifluoromethyl)phenyl)-2-oxoacetohydrazonoyl cyanide], for which the half-life at 1 μM in data set [1] stood at 7.6 min. This half-life at 1 μM and that of the compound before are within 1.5-fold of each other.
For `N#C/C(=N\Nc1ccc(N2CCOCC2)c(C(F)(F)F)c1)C(=O)c1cc2ccccc2o1` [JBJ-01-162-03, (E)-2-(benzofuran-2-yl)-N-(4-morpholino-3-(trifluoromethyl)phenyl)-2-oxoacetohydrazonoyl cyanide], in [2], the “detergent-sensitive (non-specific) inhibition of MDH” value is reported as “detergent-sensitive inhibition of malate dehydrogenase comparable to that of 3-110-22”. Moreover, the half-life at 1 μM in [1] was above 120 min. In addition, the IC90 (usually the concentration needed for an effect of 90%) with DENV2 NGC was 1.6 ± 0.7 µM. In addition, in the data set on BHK-21 cells, the “CC5” value came to 32.5 ± 2.2 µM and the “CC50 relative to antiviral IC90” value is listed as at least 20 fold.
Consider `Cc1cn(-c2cc(N/N=C(\C#N)C(=O)c3cc4ccccc4o3)cc(C(F)(F)F)c2)cn1` [JBJ-01-162-04, (E)-2-(benzofuran-2-yl)-N-(3-(4-methyl-1H-imidazol-1-yl)-5-(trifluoromethyl)phenyl)-2-oxoacetohydrazonoyl cyanide], for which, in data set [2], the “detergent-sensitive (non-specific) inhibition of MDH” value is listed as “lacks this non-specific activity; also recorded: Slight inhibition of MDH”. The Kd – broadly, a measure of binding affinity in units of concentration – in data set [3] stood at 1.4 ± 0.5 µM. Also, the “reduction of viral yield in multi-cycle infection” value in the data set on DENV2 S221 [4] is given as “over 95%”. The half-life at 1 μM in data set [1] was found to be 64.8 min. For the same compound, in data set [5], the “inhibition of E-mediated fusion (protection of core from trypsin digestion), DENV2” value is given as “inhibits E-mediated fusion of DENV2 in a concentration-dependent manner; also recorded: inhibits viral fusion in the liposome-based assay in a concentration-dependent manner”. For the same compound, the concentration at 4 h worked out at 37.2 µM in data set [6] (liver) and 75.8 µM in [6] (plasma). The results for the concentration at 12 h in data set [6] (liver) and in data set [6] (plasma) were 13 µM and 2.9 µM, respectively. The IC90 was found to be 1.5 ± 0.4 µM in the data set on DENV2 NGC and 1.4 ± 0.6 µM in the data set on DENV2 S221 [7]. Besides, the “CC50 relative to antiviral IC90” value with BHK-21 cells is reported as at least 20 fold. The fraction unbound – broadly, free concentration divided by total concentration – in the data set “Plasma-protein binding” was below 0.001.
Take `CN1CCN(c2cc(N/N=C(\C#N)C(=O)c3cc4ccccc4o3)cc(C(F)(F)F)c2)CC1` [JBJ-01-162-02, (E)-2-(benzofuran-2-yl)-N-(3-(4-methylpiperazin-1-yl)-5-(trifluoromethyl)phenyl)-2-oxoacetohydrazonoyl cyanide]: the “detergent-sensitive (non-specific) inhibition of MDH” value in data set [2] is “detergent-sensitive inhibition of malate dehydrogenase comparable to that of 3-110-22”. In data set [1], this compound had a half-life at 1 μM of 73 min. Besides, the IC90 in the data set on DENV2 NGC was 9 ± 2.8 µM. In addition, the “CC5” value in the data set on BHK-21 cells turned out to be 24.5 ± 7.2 µM.
On to `CN1CCN(c2ccc(N/N=C(\C#N)C(=O)c3cc4ccccc4o3)cc2C(F)(F)F)CC1` [JBJ-01-162-01, (E)-2-(benzofuran-2-yl)-N-(4-(4-methylpiperazin-1-yl)-3-(trifluoromethyl)phenyl)-2-oxoacetohydrazonoyl cyanide], for which the half-life at 1 μM in data set [1] is 35.1 min.
On the same count and under the same terms, then `CCN1CCN(Cc2ccc(N/N=C(\C#N)C(=O)c3cc4ccccc4o3)cc2C(F)(F)F)CC1` [JBJ-01-162-05, (E)-2-(benzofuran-2-yl)-N-(4-((4-ethylpiperazin-1-yl)methyl)-3-(trifluoromethyl)phenyl)-2-oxoacetohydrazonoyl cyanide], with 29.9 min.
